Experimental data from PMC4014704, “β-Boomerang Antimicrobial and Antiendotoxic Peptides: Lipidation and Disulfide Bond Effects on Activity and Structure” (Pharmaceuticals, 2014).
Peptide text beside a SMILES is read from it.

Assays:
[1] = system: FITC-LPS micelles; experiment: Dissociation of FITC-LPS; parameters: species or system E. coli 055:B5; conditions: 500 nM FITC-LPS, increasing peptide, excitation 480 nm, emission 515 nm
Description: Dissociation of FITC-LPS: LPS molecules form micellar aggregates in water. The competency of the peptides to dissociate LPS micelles were studied using FITC conjugated LPS. In this method, blank fluorescence of 500 nM of FITC-LPS was recorded followed by the addition of increasing concentrations of peptides. The excitation was set at 480 nm and emission at 500–550 nm.

[2] = system: LPS micelles; experiment: Dynamic light scattering of LPS micelles; parameters: species or system E. coli 0111:B4; conditions: DLS, 0.5 μM LPS, LPS:peptide 1:4; LPS alone 814 nm
Description: Dynamic light scattering measurements: LPS forms micelles of large sizes, which with the addition of increasing concentration of peptides, dissociates to smaller sizes. DLS measurements were made for 0.5 μM LPS and then with LPS: Peptide ratios of 1:2 and 1:4. The scattering was measured with Dynamic Light Scattering software provided with the instrument (Brookhaven Instruments Corp., Holtsville, NY, USA) and the scattering data was analyzed with CONTIN method.

[3] = system: E. coli cells; experiment: Zeta potential measurements; type: cell-based; conditions: increasing peptide concentrations, E. coli cells
Description: Zeta potential measurements: The zeta potential measurements were carried out on a Zetasizer Nano ZS (Malvern Instruments, Worcestershire, UK) equipped with a 633 nm He lasers. Mid-log phase grown bacterial cells were diluted to an OD600 of 0.2 and a basal measurement in the absence of peptides was acquired in disposable zeta cells with gold electrodes. Increasing concentrations of the designed peptides were then added to the cells and the measurements were made. A total of five measurements of 100 runs each were carried out for all dilutions.

[4] = aqueous solution for NMR
From the text: (§1) In addition, incorporation of disulfide bridges in AMPs may stabilize conformations and enhance cationicity and hydrophobicity required for enhanced activity. […] Residue Ile10 was chosen for Cys replacement since this residue is located at the exposed face of the β-strand of the YI12WF structure (Figure 1).
The solution conformations of YI13C, C4YI13C peptides were examined in free solution using two-dimensional ^1H-^1H NOESY and TOCSY experiments.

[5] = system: outer membrane of E. coli cells; experiment: Outer membrane permeability assay (NPN dye); type: cell-based; conditions: E. coli OD600 0.5, 10 μM NPN
Description: Outer membrane permeability assay: Outer membrane of Gram bacteria acts as permeability barrier for hydrophobic antibacterial compounds. […] E. coli cells were grown to mid logarithmic phase and diluted to an OD600nm of 0.5 in 10 mM sodium phosphate buffer, pH 7.0. The excitation was set at 350 nm and emission at 390–450 nm. NPN was added to the diluted cells at the concentration of 10 μM and a basal fluorescence was recorded followed by the addition of increasing concentration of peptides.

[6] = Reverse phase HPLC retention time (hydrophobicity); type: physicochemical; parameters: unit not given beside the values; conditions: C18 column (300 Å pore size, 5 μm particle size), linear gradient acetonitrile/water, higher Rt taken as more hydrophobic
From the text: Materials: LPS of E. coli 0111:B4, FITC-LPS of E. coli 055:B5, acrylamide, NPN (1-N-phenylnaphthylamine) were purchased from Sigma (Saint Louis, MO, USA). All bacterial strains were obtained from the American Type Culture Collection (Manassas, VA, USA). Designed peptides were synthesized commercially by GL Biochem (Shanghai, China) and further purified by a reverse phase HPLC (Waters), using a C18 column (300 Å pore size, 5 μm particle size). The dimeric variants of β-boomerang lipopeptides were treated with 20% DMSO for 18 hours and the oxidized peptides were further purified by HPLC. A linear gradient of acetonitrile/water mixture was used for the purification and fractions eluting with higher purity were collected and freeze-dried.
as §1

[7] = system: LPS micelles; experiment: Isothermal titration calorimetry; type: binding, E. coli 0111:B4; conditions: lack of saturation
Description: Isothermal titration calorimetry: Binding of designed peptides with LPS micelles was determined using isothermal titration calorimetry in VP-ITC micro calorimeter (Microcal Inc, Northampton, MA, USA). Peptides and LPS samples were dissolved in 10 mM phosphate buffer, pH 7.0 and filtered. LPS at a concentration of 10 μM was loaded into the sample cell and the reference cell was filled with the same buffer. The syringe was filled with 1mM peptide solution. Typically 30 injections of 3.5 μL of the peptides were made into the sample cell at 25 °C. Sample cell was stirred continuously at 300 rpm. Raw data were obtained and analyzed using single site binding model in Microcal Origin 5.0 software. Association constant (Ka) and enthalpy change (ΔH) were directly determined from ITC profiles. Dissociation constant was calculated from Kd = 1/Ka. ΔG and TΔS were estimated from the fundamental equations of thermodynamics, ΔG = −RTlnKa and TΔS = (ΔH − ΔG), respectively.

SMILES: CCCCCCCC(=O)N[C@@H](Cc1ccc(O)cc1)C(=O)N[C@H](C(=O)N[C@@H](CC(C)C)C(=O)N[C@@H](C)C(=O)N[C@@H](CCCCN)C(=O)N[C@@H](CCCNC(=N)N)C(=O)N[C@@H](CCCCN)C(=O)N[C@@H](CCCNC(=N)N)C(=O)N[C@@H](CCCCN)C(=O)N[C@@H](C)C(=O)N[C@@H](CSSC[C@H](NC(=O)[C@H](C)NC(=O)[C@H](CCCCN)NC(=O)[C@H](CCCNC(=N)N)NC(=O)[C@H](CCCCN)NC(=O)[C@H](CCCNC(=N)N)NC(=O)[C@H](CCCCN)NC(=O)[C@H](C)NC(=O)[C@H](CC(C)C)NC(=O)[C@@H](NC(=O)[C@H](Cc1ccc(O)cc1)NC(=O)CCCCCCC)C(C)C)C(=O)N[C@@H](Cc1ccccc1)C(=O)N[C@H](C(N)=O)[C@@H](C)CC)C(=O)N[C@@H](Cc1ccccc1)C(=O)N[C@H](C(N)=O)[C@@H](C)CC)C(C)C [C8YI13CAA] (HELM PEPTIDE1{[CCCCCCCC(=O)[*:2]].Y.V.L.A.K.R.K.R.K.A.C.F.I.[am]}|PEPTIDE2{[CCCCCCCC(=O)[*:2]].Y.V.L.A.K.R.K.R.K.A.C.F.I.[am]}$PEPTIDE1,PEPTIDE2,12:R3-12:R3$$$V2.0; N-terminus and C-terminus assumed)
- FITC fluorescence intensity / dissociation of FITC-LPS (in words) [1]: remained unchanged
- Diameter of LPS aggregates [2]: 630 nm
- Change in zeta potential (in words) [3]: did not show any detectable change in zeta potential
- Solubility for NMR studies (in words) [4]: limited solubility
- NPN fluorescence intensity with increasing peptide (in words) [5]: no marked increase in intensity
- Retention time (Rt) [6]: 32.38
- Interaction with LPS by ITC (in words) [7]: interacted weakly with LPS
